Measurements reported in patent publication US20250243210A1, “CRBN E3 LIGASE LIGAND COMPOUND, PROTEIN DEGRADER DEVELOPED BASED THEREON AND THEIR APPLICATIONS” (GLUETACS THERAPEUTICS (SHANGHAI) CO., LTD., priority 2021, published 2025).

Columns and labels:
[1] = tested on: LNcap; test: CCK-8 tumor cell proliferation, LNcap; format: cell-based, Human; conditions: 96 h, read-out: IC50 for inhibiting the proliferation of tumor cells, LNcap
Outline: (§1)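 Cells were seeded in 96-well plates and treated 24 h later with compounds at 10 concentrations, top 10 μM, 5-fold serial dilutions. Viability after the set treatment time was read with a CCK-8 kit, and IC50 was calculated from growth-inhibition curves.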

[2] = tested on: MGC80-3; test: CCK-8 tumor cell proliferation, MGC80-3; format: cell-based, Human; conditions: MGC80-3, 96 h, read-out: IC50 for inhibiting the proliferation of tumor cells, MGC80-3
Outline: as §1

[3] = tested on: DU-145; test: CCK-8 tumor cell proliferation, DU-145; format: cell-based, Human; conditions: DU-145, 96 h, read-out: IC50 for inhibiting the proliferation of tumor cells, DU-145
Outline: (§2)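 Cells grown at 37° C with 5% CO2, treated with compound for line-specific times, then viability read with CCK-8. IC50 derived from plotted growth inhibition curves.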

[4] = tested on: CCRF-CEM; test: CCK-8 tumor cell proliferation, CCRF-CEM; format: cell-based, Human; conditions: 96 h, read-out: IC50 for inhibiting the proliferation of tumor cells, CCRF-CEM
Protocol: (§3) Determination of half inhibitory concentration (IC50) of the compounds against tumor cells:
(§4) The tumor cells used herein were cultured in a cell culture medium listed in table 6 at 37° C. in an incubator with 5% CO2.
(§5) After the cells were treated with the compounds of the present disclosure for a period of time (the treatment times listed in Table 7), the cell viability detection reagent was added to the culture medium for cell viability assessment according to the instructions provided with the CCK-8 kit. […] The growth inhibition of the compounds of the present disclosure on cells was plotted by Prism Graphpad software, and the IC50 values of the compounds of the present disclosure were calculated therefrom.

[5] = tested on: MM.1R; test: CCK-8 tumor cell proliferation, MM.1R; format: cell-based; conditions: 72 h, read-out: IC50 for inhibiting the proliferation of tumor cells, MM.1R
Protocol: as §3, §4, §5

[6] = tested on: Hep3B2.1-7; test: CCK-8 tumor cell proliferation, Hep3B2.1-7; format: cell-based, Human; conditions: Hep3B2.1-7, 96 h, read-out: IC50 for inhibiting the proliferation of tumor cells, Hep3B2.1-7
Outline: as §1

[7] = tested on: Daudi; test: CCK-8 tumor cell proliferation, Daudi; format: cell-based; conditions: Homo sapiens, 96 h, read-out: IC50 for inhibiting the proliferation of tumor cells, Daudi
Protocol: as §3, §4, §5

[8] = tested on: Kasumi-1; test: CCK-8 tumor cell proliferation, Kasumi-1; format: cell-based; conditions: Homo sapiens, Kasumi-1, 72 h, read-out: IC50 for inhibiting the proliferation of tumor cells, Kasumi-1
Protocol: as §3, §4, §5

[9] = tested on: SU-DHL-6; test: CCK-8 tumor cell proliferation, SU-DHL-6; format: cell-based; conditions: Homo sapiens, SU-DHL-6, 72 h, read-out: IC50 for inhibiting the proliferation of tumor cells, SU-DHL-6
Protocol: as §3, §4, §5

[10] = tested on: A549; test: CCK-8 tumor cell proliferation, A549; format: cell-based, Human; conditions: A549, 96 h, read-out: IC50 for inhibiting the proliferation of tumor cells, A549
Protocol: as §3
The tumor cells used herein were cultured in a cell culture medium listed in table 6 at 37° C. in an incubator with 5% CO2. Prior to experimentation, all cells used were correctly identified by STR profiling, and tested negative for mycoplasma through routine screenings.
IC50 values of the compounds of the present disclosure (including the compounds in Table 4 and compounds of examples 1-72) were measured using the Meilun Cell Counting Kit-S kit from Dalian Meilun Biotech Co., Ltd. Assay details are as follows: tumor cells were seeded in a 96-well plate at a density listed in Table 7. After 24 h, 100 μL of the inoculated cells were treated with 0.5 μL of the compounds of the present disclosure (including the compounds in Table 4 and compounds of examples 1-72) at 10 different successively decreasing concentrations (starting at the highest concentration of 10 μM; 5-fold serial dilutions). After the cells were treated with the compounds of the present disclosure for a period of time (the treatment times listed in Table 7), the cell viability detection reagent was added to the culture medium for cell viability assessment according to the instructions provided with the CCK-8 kit. […] The growth inhibition of the compounds of the present disclosure on cells was plotted by Prism Graphpad software, and the IC50 values of the compounds of the present disclosure were calculated therefrom.

[11] = tested on: WSU-DLCL2; test: CCK-8 tumor cell proliferation, WSU-DLCL2; format: cell-based, Human; conditions: WSU-DLCL2, 96 h, read-out: IC50 for inhibiting the proliferation of tumor cells, WSU-DLCL2
Outline: as §2

[12] = tested on: TMD8; test: CCK-8 tumor cell proliferation, TMD8; format: cell-based; conditions: Homo sapiens, TMD8, 72 h, read-out: IC50 for inhibiting the proliferation of tumor cells, TMD8
Protocol: as §3, §4, §5

SMILES	IC50 [1]	IC50 [2]	IC50 [3]	IC50 [4]	IC50 [5]	IC50 [6]	IC50 [7]	IC50 [8]	IC50 [9]	IC50 [10]	IC50 [11]	IC50 [12]
N#Cc1ccc(OC2CCC(NC(=O)c3ccc(N4C5CCC4CN(CC4CCN(c6cc7c(cc6F)C(=O)N(C6CCC(=O)NC6=O)C7=O)CC4)C5)nn3)CC2)cc1Cl (stereo not drawn) [GT-03449, N-((1r,4r)-4-(3-chloro-4-cyanophenoxy)cyclohexyl)-6-(3-((1-(2-(2,6-dioxopiperidin-3-yl)-6-fluoro-1,3-dioxoisoindolin-5-yl)piperidin-4-yl)methyl)-3,8-diazabicyclo[3.2.1]octan-8-yl)pyridazine-3-carboxamide]	50 to 100 nM	50 to 100 nM	500 to 1000 nM	100 to 500 nM	100 to 500 nM	50 to 100 nM						
Cc1nc(Nc2ncc(C(=O)Nc3c(C)cccc3Cl)s2)cc(N2CCC(CN3C4CC3CN(c3ccc5c(c3)C(=O)N(C3CCC(=O)NC3=O)C5=O)C4)CC2)n1 (stereo not drawn) [GT-03631, N-(2-chloro-6-methylphenyl)-2-((6-(4-((3-(2-(2,6-dioxopiperidin-3-yl)-1,3-dioxoisoindolin-5-yl)-3,6-diazabicyclo[3.1.1]heptan-6-yl)methyl)piperidin-1-yl)-2-methylpyrimidin-4-yl)amino)thiazole-5-carboxamide]							100 to 500 nM	100 to 500 nM	≤ 50 nM			
Cc1nc(Nc2ncc(C(=O)Nc3c(C)cccc3Cl)s2)cc(N2CCC(CN3C4CCC3CN(c3ccc5c(c3)C(=O)N(C3CCC(=O)NC3=O)C5=O)C4)CC2)n1 (stereo not drawn) [GT-03632, N-(2-chloro-6-methylphenyl)-2-((6-(4-((3-(2-(2,6-dioxopiperidin-3-yl)-1,3-dioxoisoindolin-5-yl)-3,8-diazabicyclo[3.2.1]octan-8-yl)methyl)piperidin-1-yl)-2-methylpyrimidin-4-yl)amino)thiazole-5-carboxamide]							50 to 100 nM	≤ 50 nM	≤ 50 nM			
N#Cc1ccc(OC2CCC(NC(=O)c3ccc(N4CCC(CN5CC6CC(C5)N6c5cc6c(cc5F)C(=O)N(C5CCC(=O)NC5=O)C6=O)CC4)nn3)CC2)cc1Cl (stereo not drawn) [GT-03486, N-((1r,4r)-4-(3-chloro-4-cyanophenoxy)cyclohexyl)-6-(4-((6-(2-(2,6-dioxopiperidin-3-yl)-6-fluoro-1,3-dioxoisoindolin-5-yl)-3,6-diazabicyclo[3.1.1]heptan-3-yl)methyl)piperidin-1-yl)pyridazine-3-carboxamide]	100 to 500 nM	50 to 100 nM		100 to 500 nM	100 to 500 nM					100 to 500 nM	100 to 500 nM	
Cc1nc(Nc2ncc(C(=O)Nc3c(C)cccc3Cl)s2)cc(N2CCC(CN3C4CC3CN(c3cc5c(cc3F)C(=O)N(C3CCC(=O)NC3=O)C5=O)C4)CC2)n1 (stereo not drawn) [GT-03538, N-(2-chloro-6-methylphenyl)-2-((6-(4-((3-(2-(2,6-dioxopiperidin-3-yl)-6-fluoro-1,3-dioxoisoindolin-5-yl)-3,6-diazabicyclo[3.1.1]heptan-6-yl)methyl)piperidin-1-yl)-2-methylpyrimidin-4-yl)amino)thiazole-5-carboxamide]							100 to 500 nM	100 to 500 nM	≤ 50 nM			≤ 50 nM
Cc1nc(Nc2ncc(C(=O)Nc3c(C)cccc3Cl)s2)cc(N2CCC(CN3C4CCC3CN(c3cc5c(cc3F)C(=O)N(C3CCC(=O)NC3=O)C5=O)C4)CC2)n1 (stereo not drawn) [GT-03537, N-(2-chloro-6-methylphenyl)-2-((6-(4-((3-(2-(2,6-dioxopiperidin-3-yl)-6-fluoro-1,3-dioxoisoindolin-5-yl)-3,8-diazabicyclo[3.2.1]octan-8-yl)methyl)piperidin-1-yl)-2-methylpyrimidin-4-yl)amino)thiazole-5-carboxamide]							100 to 500 nM	50 to 100 nM	≤ 50 nM			≤ 50 nM
Cc1nc(Nc2ncc(C(=O)Nc3c(C)cccc3Cl)s2)cc(N2CCN(CCO)CC2)n1 [Dasatinib, reference compound]							100 to 500 nM	≤ 50 nM	≤ 50 nM			≤ 50 nM
